Key:
BV-2 [1] = test: Cytotoxicity against LPS-stimulated mouse BV-2 cells assessed as reduction in cell viability at 20 uM measured after 24 hrs by MTT assay relative to control; type: cell-based; conditions: bv-2, 24 h
[2] = Inhibition of LPS-induced NO production in mouse BV-2 cells incubated for 24 hrs by Griess reagent based assay; type: functional, cell-based
[3] = Effective permeability of the compound in PBS/EtOH buffer (9:1) at […] after 10 hrs by HPLC-UV based PAMPA-BBB assay; type: ADME; conditions: read-out: permeability
[4] = Inhibition of iNOS expression in LPS-stimulated mouse BV-2 cells at 10 uM measured after 24 hrs by western blot analysis relative to control; type: functional
BV-2 [5] = test: Antineuroinflammatory activity in LPS- stimulated mouse BV-2 cells assessed as fold increase in HO-1 expression at 10 uM measured after 24 hrs by immunoblotting analysis relative to control; type: functional
[6] = Mus musculus, BV-2, 24 h, read-out: EC50

Row | Structure (SMILES) | EC50 [2, 6] | Activity (BV-2 [1]) | also measured
1 | C=C1C(=O)O[C@H]2[C@@H]1[C@H](OC(C)=O)C([C@@H](C)CCCOC(C)=O)=C(C)[C@H]2n1cc(C(=O)OC)nn1 | – | 63.8% | EC50 ([2]; bv-2): Not Active
2 | CC(=O)OCCC[C@H](C)C1C(C)C[C@H]2OC(=O)C(C)[C@H]2[C@@H]1O (mixture of isomers) | > 50 µM | 98.5% | –
3 | C=C1C[C@H]2OC(=O)C(=C)[C@H]2C=C1[C@@H](C)CCCOC(C)=O | – | 54.2% | EC50 ([2]; bv-2): Not Active
4 | O=c1c(O)c(-c2ccc(O)c(O)c2)oc2cc(O)cc(O)c12 [QUERCETIN] | 10.5 µM | 98.1% | –
5 | NC(=O)N1c2ccccc2C=Cc2ccccc21 [CARBAMAZEPINE] | – | – | Papp at 10 h [3]: 10.7 ×10⁻⁶ cm/s
6 | C#Cc1ccc(-c2cn([C@@H]3C(C)=C([C@@H](C)CCCOC(C)=O)[C@@H](OC(C)=O)[C@@H]4C(=C)C(=O)O[C@@H]43)nn2)cc1 | – | 38.5% | EC50 ([2]; bv-2): Not Active
7 | CC(=O)OCCC[C@H](C)C1=C(C)C[C@H]2OC(=O)/C(=C/c3ccc(O)cc3)[C@H]2[C@@H]1O | 31.5 µM | 102.5% | –
8 | CC(=O)OCCC[C@H](C)C1=C(C)C[C@H]2OC(=O)[C@]3(CC(c4ccccc4)=NO3)[C@H]2[C@@H]1OC(C)=O | 33 µM | 96.6% | –
9 | C=C1C(=O)O[C@H]2[C@@H]1[C@H](OC(C)=O)C([C@@H](C)CCCOC(C)=O)=C(C)[C@H]2n1cc(-c2ccccc2)nn1 | – | 57.3% | EC50 ([2]; bv-2): Not Active
10 | CC(=O)OCCC[C@H](C)C1=C(C)C[C@H]2OC(=O)[C@]3(CC(c4ccccc4Br)=NO3)[C@H]2[C@@H]1OC(C)=O | > 50 µM | 98.6% | –
11 | CC(=O)OCCC[C@H](C)C1=C(C)C[C@H]2OC(=O)[C@]3(CC(c4ccc5ccccc5c4)=NO3)[C@H]2[C@@H]1OC(C)=O | > 50 µM | 95.4% | –
12 | CC(=O)OCCC[C@H](C)C1=C(C)C[C@H]2OC(=O)[C@]3(CC(c4ccccc4[N+](=O)[O-])=NO3)[C@H]2[C@@H]1OC(C)=O | > 50 µM | 97.1% | –
13 | C=C1C(=O)O[C@@H]2CC(CN3CCCC3)=C([C@@H](C)CCCOC(C)=O)[C@@H](OC(C)=O)[C@H]12 | 30.2 µM | 95.2% | –
14 | CC(=O)OCCC[C@H](C)C1=C(C)C[C@H]2OC(=O)[C@@H](C)[C@H]2[C@@H]1O | > 50 µM | 101.2% | –
15 | COc1ccc(C2=NO[C@]3(C2)C(=O)O[C@@H]2CC(C)=C([C@@H](C)CCCOC(C)=O)[C@@H](OC(C)=O)[C@@H]23)cc1 | > 50 µM | 96.5% | –
16 | COc1ccccc1C1=NO[C@]2(C1)C(=O)O[C@@H]1CC(C)=C([C@@H](C)CCCOC(C)=O)[C@@H](OC(C)=O)[C@@H]12 | > 50 µM | 99.2% | –
17 | CC(=O)OCCC[C@H](C)C1=C(C)C[C@H]2OC(=O)[C@]3(CC(c4ccc(F)cc4)=NO3)[C@H]2[C@@H]1OC(C)=O | 39 µM | 101.5% | –
18 | CC(=O)OCCC[C@H](C)C1=C(C)C[C@H]2OC(=O)[C@]3(CC(c4ccc(N(C)C)cc4)=NO3)[C@H]2[C@@H]1OC(C)=O | 28.6 µM | 9% | –

More lines, main results first:

Row | EC50 [2, 6] | Structure (SMILES) | Activity (BV-2 [1]) | also measured
19 | 6.7 µM | C=C1C(=O)O[C@H]2[C@@H]1[C@H](OC(C)=O)C([C@@H](C)CCCOC(C)=O)=C(C)[C@H]2N=[N+]=[N-] | 93.2% | –
20 | 16.3 µM | CC(=O)OCCC[C@H](C)C1=C(C)C[C@H]2OC(=O)[C@]3(CC(c4c(F)c(F)c(F)c(F)c4F)=NO3)[C@H]2[C@@H]1OC(C)=O | 92.2% | –
21 | 6.5 µM | C=C1C(=O)O[C@@H]2C[C@@]3(C)O[C@@]3([C@@H](C)CCCOC(C)=O)[C@@H](O)[C@H]12 | 93.4% | –
22 | 15.9 µM | CC(=O)OCCC[C@H](C)C1=C(C)C[C@H]2OC(=O)C(Cc3ccc(O)cc3)=C2[C@@H]1O | 90.1% | –
23 | 18.4 µM | C=C1C(=O)O[C@@H]2CC(CN3CCCCC3)=C([C@@H](C)CCCOC(C)=O)[C@@H](OC(C)=O)[C@H]12 | 92.8% | –
24 | 11.1 µM | C=C1C(=O)O[C@H]2[C@@H]1[C@H](OC(C)=O)C([C@@H](C)CCCOC(C)=O)=C(CBr)[C@@H]2Br | 96% | –
25 | 14.6 µM | C=C1C(=O)O[C@@H]2CC(CN(CC)CC)=C([C@@H](C)CCCOC(C)=O)[C@@H](OC(C)=O)[C@H]12 | 94.1% | –
26 | 2 µM | C=C1C(=O)O[C@@H]2C=C(C)C(Cl)([C@@H](C)CCCOC(C)=O)[C@@H](OC(C)=O)[C@H]12 (stereo partly specified) | 90.8% | –
27 | 9.1 µM | C=C1C(=O)O[C@H]2[C@@H]1[C@H](OC(C)=O)C([C@@H](C)CCCOC(C)=O)=C(C)[C@@H]2Br | 96.1% | –
28 | 14.4 µM | C=C1C(=O)O[C@@H]2CC(CN3CCOCC3)=C([C@@H](C)CCCOC(C)=O)[C@@H](OC(C)=O)[C@H]12 | 91.3% | –
29 | 1 µM | C=C1C(=O)O[C@@H]2CC(=C)C(Cl)([C@@H](C)CCCOC(C)=O)[C@@H](OC(C)=O)[C@H]12 (stereo partly specified) | 90.9% | –
30 | 2.8 µM | C=C1C(=O)O[C@@H]2C[C@@]3(C)O[C@@]3([C@@H](C)CCCOC(C)=O)[C@@H](OC(C)=O)[C@H]12 | 89.5% | –
31 | 6.3 µM | C=C1C(=O)O[C@@H]2CC(C)=C([C@@H](C)CCCOC(C)=O)[C@@H](OC(C)=O)[C@H]12 | 66.5% | Papp at 10 h [3]: 12.3 ×10⁻⁶ cm/s; inhibition at 10 µM [4]: 59.7%; fold change (FC) (BV-2 [5]): 4
32 | 12.5 µM | C=C1C(=O)O[C@@H]2CC(C)=C([C@@H](C)CCCOC(C)=O)[C@@H](O)[C@H]12 | 99.5% | Papp at 10 h [3]: 7.5 ×10⁻⁶ cm/s
33 | 3.8 µM | C=C1C(=O)O[C@H]2[C@@H]1[C@H](OC(C)=O)C([C@@H](C)CCCOC(C)=O)=C(C)[C@H]2N | 90.9% | –
34 | 4.5 µM | C=C1C(=O)O[C@H]2[C@@H]1[C@H](OC(C)=O)C([C@@H](C)CCCOC(C)=O)=C(C)[C@@H]2c1ccccc1 | 91.7% | –
